Data set [1] has as its system SKOV-3 ovarian cancer xenograft. In words: In vivo therapeutic study (PTT/PDT with or without DOX). On the set-up: species or system nude mice. Conditions: DOX 2.5 mg/kg, NP 25 mg/kg, light 0.25 W cm^−2 for 2 min; versus PBS control. The procedure:
Transgenic mice with mammary cancer (FVB/n Tg(MMTV-PyVmT) and nude mice bearing SKOV-3 ovarian cancer xenograft were used for the in vivo therapeutic studies. When tumor volumes reached 4-5 mm in transgenic mice, crosslinked NPs with and without 2.5 mg/kg DOX were injected via tail vein once per week for 3 doses. After 24 hrs, tumors were illuminated with a diode laser system (Applied Optronics, Newport, Conn.) at 690 nm under general anaesthesia. […] Tumor temperatures were recorded with an infrared camera (Flir). Intratumoral ROS production after irradiation was measured using 2′,7′-dichlorofluorescin diacetate (DCF) mixed with 100 μL of tissue lysates derived from tumors treated with NPs and PBS. In some cases, the blood of the mice was drawn and the ROS and heat production in blood after irradiation were measured at predetermined time points. The hemolysis was also followed. Tumor volume was measured twice a week and mice were sacrificed once tumor size reached 1000 mm^3. Tumors were harvested for histopathological evaluation 24 hours post-irradiation. The SKOV-3 ovarian cancer xenograft model was established by injecting one million cells subcutaneously at lower flank area. […] Tumor sizes and body weight were measured twice a week, while mice were monitored daily for potential signs of toxicity. […]

The subject of data set [2] is SKOV-3 ovarian cancer cells. In words: Cytotoxicity under dark conditions. In kind it is cell-based, human. Conditions: up to 1.0 mg/mL, 2 hrs exposure plus 22 hrs. The text has this:
K9TCC-Pu-In and 5637 bladder cancer cell lines and SKOV-3 ovarian cancer cell lines were used to evaluate the photosensitizing function of nano-porphyrins. […] 5-aminolevulinic acid (5-ALA), the traditional photodynamic diagnosis/therapy agent, was used as a control. In another experiments, DOX loaded nanoporphyrins were used to treat the cancer cells followed by light exposure. […]

Turning to `COc1cccc2c1C(=O)c1c(O)c3c(c(O)c1C2=O)C[C@@](O)(C(=O)CO)C[C@@H]3O[C@H]1C[C@H](N)[C@H](O)[C@H](C)O1` [free DOX, doxorubicin], in data set [1], the tumor growth result is on record as “slower tumor growth”.

Regarding pyropheophorbide-a [free Por], the “cytotoxicity without light irradiation” value in data set [2] is given as “significant cytoxicity”.

Source of the values: patent US11219692B2, “Porphyrin modified telodendrimers” (THE REGENTS OF THE UNIVERSITY OF CALIFORNIA, priority 2012, dated 2022).
